How the values were obtained:
sedge, umbrella = test: Test B flooded paddy test; assay type: in vivo, Cyperus difformis; settings: 500 g ai/ha, Flood; scale of 0 to 100 where 0 is no effect and 100 is complete control
Procedure, shortened: (§1)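 2-leaf plants; flood 3 cm over soil; compound into paddy water; depth held. Greenhouse 13–15 d. Visual rating vs controls, 0 (no effect) to 100 (complete control); dash = not tested.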

ducksalad = test: Test B flooded paddy test; assay type: in vivo, Heteranthera limosa; settings: 500 g ai/ha, Flood; scale of 0 to 100 where 0 is no effect and 100 is complete control
Procedure, shortened: as §1

ryegrass, Italian = test: Test A pre-/postemergence herbicide test; assay type: in vivo, Lolium multiflorum; settings: for Plant response rating, Ryegrass, Italian: 0 to 100 scale
Procedure, shortened: (§2)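 Scoring was visual, relative to untreated controls, on a 0–100 scale after about 10 greenhouse days. Preemergence treatment used a directed soil spray over seeded loam/sand; postemergence treatment targeted one- to two-leaf plants of 2–10 cm.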

corn = test: Test A pre-/postemergence herbicide test; assay type: in vivo, Zea mays; settings: Postemergence; for Plant response rating, Corn: 125 g ai/ha, 0 to 100 scale, 0 is no effect, 100 is complete control; for Corn plant response rating (0 to 100 scale, 0 is no effect, 100 is complete control): 500 g ai/ha
Procedure, shortened: as §2

kochia = test: Test A pre-/postemergence herbicide test; assay type: in vivo, Kochia scoparia; settings: for Plant response rating, Kochia: 0 to 100 scale
Procedure, shortened: as §2

ragweed = test: Test A pre-/postemergence herbicide test; assay type: in vivo, Ambrosia elatior; settings: for Plant response rating, Ragweed: 0 to 100 scale
Procedure, shortened: as §2

galium = test: Test A postemergence herbicide test; assay type: in vivo, Galium aparine; settings: for Plant response rating, Galium: 125 g ai/ha, 0 to 100 scale, 0 is no effect, 100 is complete control; for Galium plant response rating (0 to 100 scale, 0 is no effect, 100 is complete control): 500 g ai/ha
Procedure, shortened: (§3)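 Blackgrass and galium grown in pots of loam soil–sand blend, treated postemergence at 2–10 cm height, one- to two-leaf stage. Plants kept in greenhouse ~10 days, then visually rated for injury against untreated controls on a 0–100 scale (0 no effect, 100 complete control).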

blackgrass = test: Test A postemergence herbicide test; assay type: in vivo, Alopecurus myosuroides; settings: for Plant response rating, Blackgrass: 125 g ai/ha, 0 to 100 scale, 0 is no effect, 100 is complete control; for Blackgrass plant response rating (0 to 100 scale, 0 is no effect, 100 is complete control): 500 g ai/ha
Procedure, shortened: as §3

wheat = test: Test A pre-/postemergence herbicide test; assay type: in vivo, Triticum aestivum; settings: Postemergence; for Plant response rating, Wheat: 125 g ai/ha, 0 to 100 scale, 0 is no effect, 100 is complete control; for Wheat plant response rating (0 to 100 scale, 0 is no effect, 100 is complete control): 500 g ai/ha
Procedure, shortened: as §2

pigweed = test: Test A pre-/postemergence herbicide test; assay type: in vivo, Amaranthus retroflexus; settings: for Plant response rating, Pigweed: 0 to 100 scale
Procedure, shortened: as §2

barnyardgrass [1] = test: Test A pre-/postemergence herbicide test; assay type: in vivo, Echinochloa crus-galli
Procedure, shortened: as §2

rice = test: Test B flooded paddy test; assay type: in vivo, Oryza sativa; settings: 500 g ai/ha, Flood; scale of 0 to 100 where 0 is no effect and 100 is complete control
Procedure, shortened: as §1

barnyardgrass [2] = test: Test B flooded paddy test; assay type: in vivo, Echinochloa crus-galli; settings: 500 g ai/ha, Flood; scale of 0 to 100 where 0 is no effect and 100 is complete control
Procedure, shortened: as §1

giant foxtail = test: Test A pre-/postemergence herbicide test; assay type: in vivo, Setaria faberii; settings: for Plant response rating, Foxtail, Giant: 0 to 100 scale
Procedure, shortened: as §2

[3] = 125 g ai/ha, visual rating, 0 no effect, 100 complete control, approximately 10 days, preemergence
[4] = Postemergence, 125 g ai/ha, 0 is no effect, 100 is complete control
[5] = preemergence, 500 g ai/ha, 0 is no effect and 100 is complete control
[6] = 125 g ai/ha, visual rating, 0 to 100 scale, 0 no effect, 100 complete control, approximately 10 days, preemergence
[7] = Postemergence, 125 g ai/ha, 0 to 100 scale, 0 is no effect, 100 is complete control
[8] = preemergence, 500 g ai/ha, 0 to 100 scale (0 no effect, 100 complete control)

| SMILES | Plant response rating, Sedge, Umbrella (sedge, umbrella) | Plant response rating, Ducksalad (ducksalad) | Plant response rating, Ryegrass, Italian (ryegrass, Italian; [3]) | Plant response rating, Ryegrass, Italian (ryegrass, Italian; [4]) | Ryegrass, Italian plant response rating (0 to 100 scale, 0 is no effect, 100 is complete control) (ryegrass, Italian; Postemergence, 500 g ai/ha) | Plant response rating, Ryegrass, Italian (ryegrass, Italian; [5]) | Plant response rating, Corn (corn) | Corn plant response rating (0 to 100 scale, 0 is no effect, 100 is complete control) (corn) | Plant response rating, Kochia (kochia; [3]) | Plant response rating, Kochia (kochia; [4]) | Kochia plant response rating (0 to 100 scale, 0 is no effect, 100 is complete control) (kochia; Postemergence, 500 g ai/ha) | Plant response rating, Kochia (kochia; [5]) | Plant response rating, Ragweed (ragweed; [3]) | Plant response rating, Ragweed (ragweed; [4]) | Ragweed plant response rating (0 to 100 scale, 0 is no effect, 100 is complete control) (ragweed; Postemergence, 500 g ai/ha) | Plant response rating, Ragweed (ragweed; [5]) | Plant response rating, Galium (galium) | Galium plant response rating (0 to 100 scale, 0 is no effect, 100 is complete control) (galium) | Plant response rating, Blackgrass (blackgrass) | Blackgrass plant response rating (0 to 100 scale, 0 is no effect, 100 is complete control) (blackgrass) | other results |
| --- | --- | --- | --- | --- | --- | --- | --- | --- | --- | --- | --- | --- | --- | --- | --- | --- | --- | --- | --- | --- | --- |
| O=C1NCC(c2ccc3c(c2)OC(F)(F)O3)C1C(=O)Nc1ccccc1F (racemic) [Compound 161] | 0 | 100 | 0 | 20 | 50 | 50 | 10 | 60 | 20 | 20 | 60 | 60 | 20 | 0 | 30 | 70 | 50 | 60 | 50 | 50 | Plant response rating, Wheat (wheat): 20; Wheat plant response rating (0 to 100 scale, 0 is no effect, 100 is complete control) (wheat): 40; Plant response rating, Pigweed (pigweed; [3]): 20; Plant response rating, Pigweed (pigweed; [4]): 20; Pigweed plant response rating (0 to 100 scale, 0 is no effect, 100 is complete control) (pigweed; Postemergence, 500 g ai/ha): 60; Plant response rating, Pigweed (pigweed; [5]): 70; Plant response rating, Barnyardgrass (barnyardgrass [1]; [6]): 90; Plant response rating, Barnyardgrass (barnyardgrass [1]; [7]): 90; Barnyardgrass plant response rating (0 to 100 scale, 0 is no effect, 100 is complete control) (barnyardgrass [1]; Postemergence, 500 g ai/ha): 90; Plant response rating, Barnyardgrass (barnyardgrass [1]; [8]): 90; Plant response rating, Rice (rice): 10; Plant response rating, Barnyardgrass (barnyardgrass [2]): 65; Plant response rating, Foxtail, Giant (giant foxtail; [3]): 90; Plant response rating, Foxtail, Giant (giant foxtail; [4]): 90; Foxtail, Giant plant response rating (0 to 100 scale, 0 is no effect, 100 is complete control) (giant foxtail; Postemergence, 500 g ai/ha): 90; Plant response rating, Foxtail, Giant (giant foxtail; preemergence, 500 g ai/ha): 90 |
| O=C1NCC(c2cccc(C(F)F)c2)C1C(=O)Nc1ccc(F)c(F)c1F (racemic) [Compound 165] | 0 | 100 | 0 | 40 | 50 | 20 | 60 | 80 | 70 | 50 | 70 | 70 | 0 | 20 | 50 | 80 | 40 | 50 | 60 | 70 | Plant response rating, Wheat (wheat): 30; Wheat plant response rating (0 to 100 scale, 0 is no effect, 100 is complete control) (wheat): 70; Plant response rating, Pigweed (pigweed; [3]): 50; Plant response rating, Pigweed (pigweed; [4]): 30; Pigweed plant response rating (0 to 100 scale, 0 is no effect, 100 is complete control) (pigweed; Postemergence, 500 g ai/ha): 50; Plant response rating, Pigweed (pigweed; [5]): 70; Plant response rating, Barnyardgrass (barnyardgrass [1]; [6]): 90; Plant response rating, Barnyardgrass (barnyardgrass [1]; [7]): 90; Barnyardgrass plant response rating (0 to 100 scale, 0 is no effect, 100 is complete control) (barnyardgrass [1]; Postemergence, 500 g ai/ha): 90; Plant response rating, Barnyardgrass (barnyardgrass [1]; [8]): 90; Plant response rating, Rice (rice): 10; Plant response rating, Barnyardgrass (barnyardgrass [2]): 75; Plant response rating, Foxtail, Giant (giant foxtail; [3]): 90; Plant response rating, Foxtail, Giant (giant foxtail; [4]): 70; Foxtail, Giant plant response rating (0 to 100 scale, 0 is no effect, 100 is complete control) (giant foxtail; Postemergence, 500 g ai/ha): 90; Plant response rating, Foxtail, Giant (giant foxtail; preemergence, 500 g ai/ha): 90 |
| O=C1NCC(c2cccc(C3CC3)c2)C1C(=O)Nc1ccccc1F (racemic) [Compound 166] | 0 | 100 | 20 | 0 | 50 | 60 | 30 | 80 | 30 | 30 | 70 | 70 | 0 | 0 | 0 | 50 | 20 | 60 | 50 | 60 | Plant response rating, Wheat (wheat): 20; Wheat plant response rating (0 to 100 scale, 0 is no effect, 100 is complete control) (wheat): 50; Plant response rating, Pigweed (pigweed; [3]): 0; Plant response rating, Pigweed (pigweed; [4]): 40; Pigweed plant response rating (0 to 100 scale, 0 is no effect, 100 is complete control) (pigweed; Postemergence, 500 g ai/ha): 50; Plant response rating, Pigweed (pigweed; [5]): 10; Plant response rating, Barnyardgrass (barnyardgrass [1]; [6]): 80; Plant response rating, Barnyardgrass (barnyardgrass [1]; [7]): 80; Barnyardgrass plant response rating (0 to 100 scale, 0 is no effect, 100 is complete control) (barnyardgrass [1]; Postemergence, 500 g ai/ha): 80; Plant response rating, Barnyardgrass (barnyardgrass [1]; [8]): 90; Plant response rating, Rice (rice): 0; Plant response rating, Barnyardgrass (barnyardgrass [2]): 75; Plant response rating, Foxtail, Giant (giant foxtail; [3]): 90; Plant response rating, Foxtail, Giant (giant foxtail; [4]): 80; Foxtail, Giant plant response rating (0 to 100 scale, 0 is no effect, 100 is complete control) (giant foxtail; Postemergence, 500 g ai/ha): 90; Plant response rating, Foxtail, Giant (giant foxtail; preemergence, 500 g ai/ha): 90 |
| O=C1NCC(c2cccc(C3CC3)c2)C1C(=O)Nc1cccc(F)c1F (racemic) [Compound 167] | 0 | 100 | 20 | 20 | 40 | 70 | 0 | 70 | 20 | 30 | 50 | 60 | 0 | 20 | 50 | 50 | 50 | 60 | 50 | 60 | Plant response rating, Wheat (wheat): 0; Wheat plant response rating (0 to 100 scale, 0 is no effect, 100 is complete control) (wheat): 50; Plant response rating, Pigweed (pigweed; [3]): 50; Plant response rating, Pigweed (pigweed; [4]): 0; Pigweed plant response rating (0 to 100 scale, 0 is no effect, 100 is complete control) (pigweed; Postemergence, 500 g ai/ha): 0; Plant response rating, Pigweed (pigweed; [5]): 50; Plant response rating, Barnyardgrass (barnyardgrass [1]; [6]): 90; Plant response rating, Barnyardgrass (barnyardgrass [1]; [7]): 90; Barnyardgrass plant response rating (0 to 100 scale, 0 is no effect, 100 is complete control) (barnyardgrass [1]; Postemergence, 500 g ai/ha): 90; Plant response rating, Barnyardgrass (barnyardgrass [1]; [8]): 90; Plant response rating, Rice (rice): 10; Plant response rating, Barnyardgrass (barnyardgrass [2]): 75; Plant response rating, Foxtail, Giant (giant foxtail; [3]): 90; Plant response rating, Foxtail, Giant (giant foxtail; [4]): 90; Foxtail, Giant plant response rating (0 to 100 scale, 0 is no effect, 100 is complete control) (giant foxtail; Postemergence, 500 g ai/ha): 90; Plant response rating, Foxtail, Giant (giant foxtail; preemergence, 500 g ai/ha): 90 |

Reference: US10294202B2, “Pyrrolidinones as herbicides” (FMC Corporation, priority 2013, dated 2019)
